Laboratory results: patent publication US8916607B2, “Use of piperphentonamine or salts thereof in manufacture of medicaments for treating brain diseases” (Guangzhou Municipal Zhongwei Biotechnology Limited Company, priority 2009, dated 2014)
Marks after values point to notes of the source that are not given here.

Columns and labels:
[1] = test system: infective brain edema of rats (pertussis bacteria liquid); assay: infective cerebral edema: IL-1β, TNF-α (ELISA) and NO (Griess) in cerebral tissue; format: in vivo, SD rats; details: rat cerebral tissue, 4 h
Description: Determine the content of IL-1β, TNF-α and NO by using ELISA and Griess method.
Model preparation was same as that of example 4. Piperphentonamine acetate group was intraperitoneally injected with 0.5 mg/kg daily for 2 days 48 h before the injection of pertussis bacterial liquid. Rats in each group were decollated after being injected with bacterial liquid or saline 4 h. ELISA method and Griess method were used to measure the content of IL-1β, TNF-α and NO in brain homogenate of infectious brain edema model of rats.

human brain disease = assay: research in treating human brain diseases (no details); format: in vivo
[2] = test system: ischemia reperfusion injury of mouse brain; assay: SOD activity, MDA and GSH content of brain homogenate after cerebral ischemia reperfusion; format: in vivo, Kunming mice
Description: Ischemia reperfusion method in the mouse and the administration method are the same as above. After ischemia reperfusion is completed, executing by decollating, removing the brain and making homogenate by phosphate buffer in 0° C., determining the activity of SOD by pyrogallol autoxidation method, the content of MDA by TBA method, and the content of GSH by DTNB method, quantitate the protein by Coomassie brilliant blue method.

[3] = test system: cultured cerebral neurons; assay: NMDA induces neuron injury in primary cultured neurons; format: cell-based, rat; details: 12 h; for mortality: NMDA 50 mmol/L
[4] = test system: cerebral hemorrhage in rats induced by collagenase; assay: cerebral hemorrhage (ICH) model induced by collagenase: neurology score; format: in vivo, Wistar rats
Description: (§1) Animals are randomly divided into five groups: sham operation 24 h group; cerebral hemorrhage (Intracerebral Haemorrhage, ICH)+physiological saline group (model); ICH+piperphentonamine hydrochloride (JBTA, 2 mg/kg) group, called as high dose group (h); ICH+piperphentonamine hydrochloride (JBTA, 0.5 mg/kg) group, called as low dose group (1); ICH+nimodipine (Nim, 0.5 mg/kg) group. The last four groups are divided into 4 h, 8 h, 12 h, 24 h as four time subgroups respectively. Physiological saline solution, piperphentonamine hydrochloride and nimodipine are intravenously injected from rat tail before the ICH model is established for 30 minutes, once a day. Injecting slowly, the total amount of drug liquid is controlled in 1 ml/200 g body weight: physiological saline solution also being administered in 1 ml/200 g body weight. Each group has 7 Wistar rats.
The specific steps are as following: after the experimental rats are anesthetized by injecting chloral hydrate (350 mg/kg) in intraperitoneal, and being supinely immobilized in a stereotaxic instrument, and make the rat anterior fontanelle and posterior fontanelle in the same plane according to localization method reported by BAO Xinmin, etc. Being locally disinfected by iodine, incising in the midmost of scalp, scissoring the periosteum, exposing the anterior fontanelle, drilling a 1 mm diameter hole with thickness close to duramater in 3 mm left to the midline by number five needle. Inserting needle along the hole by the micro syringe fixed on a stereotaxic, the depth of needle insertion is 5.8 mm (i.e., the caudate nucleus position), slowly injecting collagenase VI 0.5 U. Injection time is 3 min, keeping for 5 min after injection, then pull the needle out, suturing the skin, and putting the rat into cage and feed. Inserting the needle and not injecting drugs in sham operation group, the remaining operations is the same as the above.
After animals wake up, scoring nerve function defect of each group immediately according to the grading classification standards of nerve defect reported by Bedersog (litter improved).
Choosing the animals with the score of 3 and more into the experiment, the animals are bred in different cages, eat and drink normally. Temperature is controlled in 20 to 25° C., score in 4 h, 8 h, 12 h, 24 h after establishment of the model.
(§2) Divide the animals randomly into five groups: sham operation (sham) 24 h group; ICH+normal saline group (model); ICH+piperphentonamine maleate (4 mg/kg) group, namely high dose group (h); ICH+piperphentonamine maleate (2 mg/kg) group, namely low dose group (1); ICH+nimodipine (0.5 mg/kg) group. The last four groups were divided into four time subgroup of 4 h, 8 h, 12 h and 24 h. Physiological solution, piperphentonamine maleate and nimodipine were injected intravenous from rat tail vein 30 minutes before the ICH model made, once a day. Inject slowly, the total amount of drug liquid was controlled in 1 ml/200 g body weight: normal saline was also administered in 1 ml/200 g body weight. Each group has seven Wistar rats.

[5] = test system: cerebral hemorrhage in rats induced by collagenase; assay: ICH model induced by collagenase: brain water content (BWC); format: in vivo, Wistar rats
Description: as §1
Observing the influence of piperphentonamine hydrochloride on the brain water content of intracerebral hemorrhage in rats in 4 h, 8 h, 12 h, 24 h, the animals of the different groups is anesthetized by chloral hydrate at predetermined time point, and decollating and taking the brain rapidly, putting the brain tissue on a filter paper wetted by saline solution to prevent water evaporating. Removing the leptomeninges and blood, cutting and taking the front half portion of brain tissue centered by the hole for the insertion needle, weighing precisely (accurate to 0.1 mg). It is controlled in 5 min to take the brain to finish weigh. Then putting in 95° C. constant temperature oven for 24 h, weighing the dry weight. The brain water content is calculated according to Blliot formula: BWC=(wet weight−dry weight)/wet weight×100%.
as §2

[6] = 0.5 mg/kg iv 30 min before ICH, 4 h
[7] = 0.5 mg/kg iv 30 min before ICH, 8 h
[8] = 0.5 mg/kg iv 30 min before ICH, 12 h
[9] = 0.5 mg/kg iv 30 min before ICH, 24 h
[10] = 2 mg/kg iv 30 min before ICH, 4 h
[11] = 2 mg/kg iv 30 min before ICH, 8 h
[12] = 2 mg/kg iv 30 min before ICH, 12 h
[13] = 2 mg/kg iv 30 min before ICH, 24 h

SMILES: CN(CCC(=O)/C=C/c1ccc(O)cc1)CCc1ccc2c(c1)OCO2.Cl [piperphentonamine hydrochloride, Piperphentonamine hydrochloride]
- IL-1β [1]: 318.4 ± 43.8^2)3) pg/g
- NO [1]: 86.1 ± 5.9^2)3) nmol/g
- TNF-α [1]: 499.7 ± 134.9^2)3) pg/g
- treating human brain and other diseases (human brain disease): obvious effect and clinical significance
- GSH ([2]; 20 mg/kg): 10.34 ± 3.17 mg/g pr
- MDA ([2]; 20 mg/kg): 4.48 ± 1.03 nmol/g pr
- SOD ([2]; 20 mg/kg): 0.34 ± 0.02 Ku/g pr
- GSH ([2]; 40 mg/kg): 13.1 ± 4.34 mg/g pr
- MDA ([2]; 40 mg/kg): 3.74 ± 0.67 nmol/g pr
- SOD ([2]; 40 mg/kg): 0.37 ± 0.02 Ku/g pr
- GSH ([2]; 80 mg/kg): 14.77 ± 4.61 mg/g pr
- MDA ([2]; 80 mg/kg): 3.53 ± 0.76 nmol/g pr
- SOD ([2]; 80 mg/kg): 0.42 ± 0.04 Ku/g pr
- mortality ([3]; drug 10 mmol/L, hydrochloride): 38%
- mortality ([3]; drug 10 mmol/L, listed as JBTA2, hydrochloride): 38%
- mortality ([3]; drug 100 mmol/L, hydrochloride): 24%
- mortality ([3]; drug 100 mmol/L, listed as JBTA2, hydrochloride): 24%
- morphological change of culture neuron ([3]; drug 10): the degree of cell injury reduces significantly
- neurological score [4, 6]: 4.5 ± 0.87
- neurological score [4, 7]: 4.29 ± 1.02
- neurological score [4, 8]: 3.65 ± 1.19
- neurological score [4, 9]: 3.21 ± 1.61
- neurological score [4, 10]: 4.07 ± 0.74
- neurological score [4, 11]: 3.86 ± 1.19
- neurological score [4, 12]: 2.36 ± 0.8*^Δ
- neurological score [4, 13]: 1.71 ± 0.57**^Δ
- brain water content (%) [5, 6]: 79.90 ± 0.84^Δ %
- brain water content (%) [5, 7]: 81.19 ± 0.78^ΔΔ %
- brain water content (%) [5, 8]: 82.70 ± 0.76^ΔΔ %
- brain water content (%) [5, 9]: 84.98 ± 0.65^ΔΔ %
- brain water content (%) [5, 10]: 79.29 ± 0.69 %
- brain water content (%) [5, 11]: 79.73 ± 0.53^Δ** %
- brain water content (%) [5, 12]: 80.75 ± 0.19^ΔΔ** %
- brain water content (%) [5, 13]: 82.38 ± 0.73^ΔΔ** %
